Columns and labels:
[1] = test system: procollagen α1(I) RNA; assay: Multiprobe RNAse protection assay of liver RNA, procollagen α1(I); assay type: in vivo, rat; settings: BDO rats, LU 80 mg/kg/d for 6 weeks; relative to GAPDH; p<0.05
Method: Plasmids encoded predescribed regions of the rat procollagen α1 (I) and […] (GAPDH) genes, encompassing 230 bp (Bam HI/Rsal sites) and 102 bp (position 335-437), resp. (44, 45). The rat tissue inhibitor of metalloproteinase-1 (TIMP-1) probe (position 176-439) was prepared by RT-PCR according to the published sequence (J. P. Iredale, R. C. Benyon, M. J. P. Arthur (1996). Hepatology 24:176-184.), cloned into pZErO-1 (Invitrogen, San Diego, Calif., U.S.A.) and confirmed by restriction enzyme analysis. Preparation of riboprobes: The cDNA templates were linearized with appropriate restriction endonucleases. […] Riboprobes were purified by electrophoresis through a denaturing polyacrylamide gel and the radioactivity of eluted probes were measured by liquid scintillation counting. […] Autoradiographic signals were analyzed with the public domain NTH Image Program. The procollagen α1(I) and TIMP-1 RNA signals were normalized to the signal of GAPDH RNA and expressed as relative abundance (arbitrary units). 10 liver samples each of negative controls, of untreated rats with BDO and of rats with BDO that received LU at 80 mg/kg/d were analyzed.

[2] = test system: rat secondary biliary liver fibrosis (BDO); assay: Histological assessment (staging) of liver fibrosis in BDO rats; assay type: in vivo
Method: Female adult wistar rats, average weight 206±19 g, underwent the following microsurgical procedure under an operating microscope (OPMI 6-2, Zeiss, Germany) (B. Gerling, M. Becker, J. Waldschmidt, D. Schuppan (1996). J. Hepatol. 25:79-84; G. Boigk, L. Stroedter, H. Herbst H, et al. (1997). Hepatology 26:643-639.): 1. midline abdominal incision following anaesthesia with 100 mg/kg ketamine-hydroochloride (Ketanest®, Parke-Davis, Germany) and 10 mg/kg 5,6-dihydro-2-(2,6-xylidino)-4H-1,3-thiazine-hydrochloride (Rompun®, Bayer, Germany); 2. dissection of the common bile duct, insertion of a teflon catheter (Abbocath -T 26 G, venisystems, U.S.A.) and placement of a distal complete and a proximal incomplete ligature with 5-0 silk (Permahand , Ethicon, Germany); 3. retrograde injection of sodium-amidotrizoate (Ethibloc®, Ethicon Germany) at a dose of 0.02 ml/100 g body weight; 4. removal of the catheter, closure of the proximal ligature, scission of the bile duct between the ligatures and wound closure. After bile duct occlusion (BDO), animals received normal chow (Altromin®, Lage, Germany) and were allowed free access to water. […] The following therapeutic groups were formed: 1. BDO and LU at 80 mg/kg/d for 6 weeks (BDO 80/1-6:n=20); 2. BDO and LU at 80 mg/kg/d from week 4-6 of BDO (BDO 80/4-6:n=20); 3. BDO and LU at 10 mg/kg/d (sham 80/ 1-6:n=10), rats without medication (control: n=10) and bile duct occluded animals without treatment for 6 weeks (BDO: n=20) served as controls.
For each liver 1 μm paraffin sections of the right and the left lobe were stained with hematoxylin/eosin, trichrome (Masson-Goldner) and silver impregnation (Gomori), and scores (see below of both lobes averaged. Inflammation and necrosis were graded according to the histological activity index of Knodell et al. (R. G. Knodell, K. G. Ishak, W. C. Black, et al. (1981). Hepatology 1:431-435.). Staging of fibrosis was modified from (G. Boigk, L. Stroedter, H. Herbst H, et al. (1997). Hepatology 26:643-649.) as follows: stage 0; normal; stage I: portal fiels marginally expanded by bile ductules; stage II: expanded portal fields which occasionally […] each other; stage III: markedly expanded portal fields, all of which broadly contact each other, separating hepatocellular islands; stage IV: the liver is entirely filled with fibrotic biliary proliferations that entrap few residual hepatocytes (severe cirrhosis). Scores of the right and left lobes were averaged to give single numerical values for each liver.

[3] = BDO/LU 80/1-6: LU 80 mg/kg/d week 1-6
[4] = BDO/LU 80/4-6: LU 80 mg/kg/d week 4-6

Structure (SMILES): COc1cc(OC)nc(O[C@H](C(=O)O)C(OC)(c2ccccc2)c2ccccc2)n1 [LU]
- Reduction of procollagen α1(I) mRNA level [1]: 35%
- Histological assessment of fibrosis: animals at Stage I [2, 3]: 2
- Histological assessment of fibrosis: animals at Stage II [2, 3]: 4
- Histological assessment of fibrosis: animals at Stage III [2, 3]: 4
- Histological assessment of fibrosis: animals at Stage I [2, 4]: 4
- Histological assessment of fibrosis: animals at Stage II [2, 4]: 5
- Histological assessment of fibrosis: animals at Stage III [2, 4]: 3
- Histological assessment of fibrosis: animals at Stage IV [2, 4]: 2
- Histological assessment of fibrosis: animals at Stage I ([2]; headed BDO/LU 80/1-6): 8
- Histological assessment of fibrosis: animals at Stage II ([2]; headed BDO/LU 80/1-6): 5
- Histological assessment of fibrosis: animals at Stage III ([2]; headed BDO/LU 80/1-6): 4
- Histological assessment of fibrosis: animals at Stage IV ([2]; headed BDO/LU 80/1-6): 3
- Histological fibrosis score ([2]; rats with BDO, administration of LU): improved histological fibrosis score
- Architectural distortion of the liver, semiquantitatively graded ([2]; rats with BDO, low-dose vs high-dose group (not shown)): even more significantly reduced in the low-than in the high-dose group
